Results published in PMC11923649, “Novel C-2 Aromatic Heterocycle-Substituted Triterpenoids Inhibit Hedgehog Signaling in GLI1 Overexpression Cancer Cells” (ACS Omega, 2025).

Assays:
HCT 116 = test: MTS cytotoxicity assay, 72 h, HCT 116; format: cell-based; settings: Homo sapiens, HCT-116, 72 h
Method in brief: (§1)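 IC50 values come from a tetrazolium (MTS) read-out at 490 nm taken after continuous 72 h exposure to a twofold dilution series from 50 down to 0.0975 μmol/L, with compound added one day after seeding.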

[1] = tested on: K562 (chronic myelogenous leukemia); test: MTS cytotoxicity assay, 72 h, K562; format: cell-based; settings: Homo sapiens
Method in brief: as §1

DU-145 (prostate cancer) = test: MTS cytotoxicity assay, 72 h, DU-145; format: cell-based, human; settings: Homo sapiens, DU-145, 72 h
Method in brief: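 Seed cells; next day add compound (50–0.0975 μmol/L, 2-fold steps); incubate 72 h, 37 °C, 5% CO2; add MTS/PMS, 1–4 h; read A490; fit IC50.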

[2] = tested on: A549 (lung adenocarcinoma); test: MTS cytotoxicity assay, 72 h, A549; format: cell-based; settings: Homo sapiens, A549, 72 h
Method in brief: as §1

U2OS = test: MTS cytotoxicity assay, 72 h, U2OS; format: cell-based; settings: Homo sapiens
CEM-DNR = test: MTS cytotoxicity assay, 72 h, CEM-DNR; format: cell-based; settings: Homo sapiens
CCRF-CEM = test: MTS cytotoxicity assay, 72 h, CCRF-CEM; format: cell-based; settings: for IC50: Homo sapiens, CCRF-CEM, 72 h, MTS
Method in brief: as §1

[3] = tested on: BJ human skin fibroblasts; test: MTS cytotoxicity assay, 72 h, BJ fibroblasts; format: cell-based; settings: Homo sapiens, Skin fibroblast, normal fibroblasts
Method in brief: as §1

HCT116 p53–/– = test: MTS cytotoxicity assay, 72 h, HCT116 p53–/–; format: cell-based; settings: Homo sapiens, HCT-116, 72 h
Method in brief: as §1

MRC-5 lung fibroblasts = test: MTS cytotoxicity assay, 72 h, MRC-5 fibroblasts; format: cell-based, human; settings: Homo sapiens, MRC5, 72 h, normal fibroblasts
Method in brief: as §1

K562-TAX = test: MTS cytotoxicity assay, 72 h, K562-TAX; format: cell-based
[4] = tested on: nine cancer and two normal fibroblast derived cell lines; test: MTS cytotoxicity assay, whole panel of 11 cell lines; format: cell-based; settings: 72 h, statement for whole panel
Experimental: Based on the preliminary results and tests of a larger library of known triterpenoids, a small set of 2-substituted lupane and 18α-oleanane derivatives was designed and synthesized. As the first step, the cytotoxic activity of the synthesized derivatives was assessed using an MTS assay following 72 h of treatment (Table 1). Selected cell lines A549 (lung adenocarcinoma) and DU-145 (prostate cancer) are both dependent on Hh signaling. In addition, K562 (chronic myelogenous leukemia) was included as a cell line sensitive to Hh inhibitors[32] and a type of hematological malignancy with active Hh signaling.[33] MRC-5 lung fibroblasts and BJ human skin fibroblasts cell lines were used to evaluate the toxicity against nontumor cells. Compounds were also tested using the standard panel of other cancer cell lines, as described in our earlier work (Table 1).[27]
The human prostate tumor-derived cell line DU145 was obtained from ATCC (American Type Culture Collection) and cultured in RPMI 1640 (Roswell Park Memorial Institute) medium supplemented with 10% (v/v) fetal bovine serum (FBS). Human prostate tumor-derived LNCaP cells were obtained from ATCC and cultured in RPMI 1640 medium supplemented with 10% FBS. […] Finally, the absorbance at 490 nm was measured using an EnVision multifunctional modular reader (PerkinElmer). The IC50 value was determined using Dotmatics software.

| Compound | IC50 (HCT 116; full Table S1) | IC50 ([1]; full Table S1) | IC50 (DU-145 (prostate cancer); full Table S1) | IC50 ([2]; full Table S1) | IC50 (U2OS; full Table S1) | IC50 (CEM-DNR; full Table S1) | IC50 ([3]; full Table S1) | IC50 (HCT116 p53–/–; full Table S1) | IC50 (MRC-5 lung fibroblasts; full Table S1) | IC50 (K562-TAX; full Table S1) | also measured |
| --- | --- | --- | --- | --- | --- | --- | --- | --- | --- | --- | --- |
| CC1(C)C(=O)C(c2ccc3c(c2)OCCO3)=C[C@@]2(C)C1CC[C@]1(C)C2CCC2C3[C@H]4OC[C@@]3(CCC4(C)C)CC[C@]21C (stereo partly drawn) [Compound 4j, 2-(1,4-Benzodioxan-6-yl)-19β,28-epoxyolean-1-en-3-one] | > 50 µM | > 50 µM | > 50 µM | > 50 µM | > 50 µM | > 50 µM | > 50 µM | > 50 µM | > 50 µM | > 50 µM | SI (selectivity index) (CCRF-CEM; CCRF-CEM vs average of BJ and MRC-5, full Table S1): > 1.0; IC50 (CCRF-CEM; full Table S1): > 50 µM |
| CC1(C)C(=O)C(c2ccc3cn[nH]c3c2)=C[C@@]2(C)C1CC[C@]1(C)C2CCC2C3[C@H]4OC[C@@]3(CCC4(C)C)CC[C@]21C (stereo partly drawn) [Compound 4n, 2-(Indazol-6-yl)-19β,28-epoxyolean-1-en-3-one] | 30.6 µM | 22.5 µM | 23.9 µM | 29.5 µM | 24.5 µM | 24.1 µM | 42.2 µM | 30.6 µM | 33.2 µM | 16.8 µM | IC50 (HCT 116; Table 1): 31 µM; IC50 ([1]; Table 1): 23 µM; IC50 (DU-145 (prostate cancer); Table 1): 24 µM; IC50 ([2]; Table 1): 30 µM; IC50 (U2OS; Table 1): 25 µM; IC50 (CEM-DNR; Table 1): 24 µM; IC50 (CCRF-CEM; Table 1): 18 µM; SI (selectivity index) (CCRF-CEM; IC50 of CCRF-CEM line vs average of both fibroblasts (BJ and MRC-5), Table 1): 2.1; IC50 ([3]; Table 1): 42 µM; IC50 (HCT116 p53–/–; Table 1): 31 µM; IC50 (MRC-5 lung fibroblasts; Table 1): 33 µM; Cytotoxic activity (IC50) on these 11 cell lines [4]: weak cytotoxicity; IC50 (K562-TAX; Table 1): 16 µM |
